Laboratory results reported in the NIST ThermoML archive (doi:10.1021/je050288d).
± gives the expanded uncertainty stated by the source.

Details: Gas

O [water]
Details	viscosity [mPa·s]
297.39 K, Mass density=0.0402 kg/m3	0.009665 ± 9.5e-05
297.88 K, Mass density=0.0668 kg/m3	0.009654 ± 9.5e-05
298.02 K, Mass density=0.0247 kg/m3	0.009675 ± 9.5e-05
298.08 K, Mass density=0.0368 kg/m3	0.009683 ± 9.5e-05
298.17 K, Mass density=0.1654 kg/m3	0.009693 ± 9.5e-05
298.3 K, Mass density=0.0186 kg/m3	0.0097 ± 9.5e-05
298.38 K, Mass density=0.1081 kg/m3	0.009686 ± 9.5e-05
298.57 K, Mass density=0.1973 kg/m3	0.009684 ± 9.5e-05
299.06 K, Mass density=0.0793 kg/m3	0.009709 ± 9.5e-05
300.07 K, Mass density=0.2351 kg/m3	0.009725 ± 9.5e-05
310.8 K, Mass density=0.0186 kg/m3	0.01013 ± 9.8e-05
310.87 K, Mass density=0.0368 kg/m3	0.01013 ± 9.8e-05
310.96 K, Mass density=0.0668 kg/m3	0.01011 ± 9.8e-05
311.24 K, Mass density=0.1654 kg/m3	0.01014 ± 9.8e-05
311.3 K, Mass density=0.0793 kg/m3	0.01013 ± 9.8e-05
311.39 K, Mass density=0.1081 kg/m3	0.01013 ± 9.8e-05
311.45 K, Mass density=0.0402 kg/m3	0.01015 ± 9.8e-05
311.77 K, Mass density=0.0247 kg/m3	0.01015 ± 9.8e-05
312.25 K, Mass density=0.2351 kg/m3	0.01014 ± 9.8e-05
313.01 K, Mass density=0.1973 kg/m3	0.01017 ± 9.8e-05
324.45 K, Mass density=0.0668 kg/m3	0.01059 ± 0.0001
324.54 K, Mass density=0.0247 kg/m3	0.0106 ± 0.0001
324.54 K, Mass density=0.1654 kg/m3	0.0106 ± 0.0001
324.74 K, Mass density=0.2351 kg/m3	0.01058 ± 0.0001
325 K, Mass density=0.0402 kg/m3	0.01062 ± 0.0001
325.15 K, Mass density=0.1973 kg/m3	0.01059 ± 0.0001
325.42 K, Mass density=0.1081 kg/m3	0.01062 ± 0.0001
325.96 K, Mass density=0.0368 kg/m3	0.01065 ± 0.0001
331.18 K, Mass density=0.0186 kg/m3	0.01083 ± 0.0001
331.47 K, Mass density=0.0793 kg/m3	0.01084 ± 0.0001
338.02 K, Mass density=0.1973 kg/m3	0.01103 ± 0.0001
338.38 K, Mass density=0.2351 kg/m3	0.01105 ± 0.0001
338.47 K, Mass density=0.0247 kg/m3	0.01108 ± 0.0001
338.71 K, Mass density=0.0368 kg/m3	0.0111 ± 0.0001
338.79 K, Mass density=0.0793 kg/m3	0.01108 ± 0.0001
338.83 K, Mass density=0.0186 kg/m3	0.01111 ± 0.0001
339.39 K, Mass density=0.0402 kg/m3	0.01112 ± 0.0001
340.17 K, Mass density=0.1081 kg/m3	0.01113 ± 0.0001
341.28 K, Mass density=0.0668 kg/m3	0.01117 ± 0.0001
352.03 K, Mass density=0.1973 kg/m3	0.01153 ± 0.00011
352.05 K, Mass density=0.1654 kg/m3	0.01154 ± 0.00011
352.17 K, Mass density=0.0668 kg/m3	0.01156 ± 0.00011
352.37 K, Mass density=0.2351 kg/m3	0.01154 ± 0.00011
352.75 K, Mass density=0.0186 kg/m3	0.0116 ± 0.00011
352.77 K, Mass density=0.0402 kg/m3	0.0116 ± 0.00011
352.79 K, Mass density=0.0793 kg/m3	0.01159 ± 0.00011
352.91 K, Mass density=0.0247 kg/m3	0.0116 ± 0.00011
353.16 K, Mass density=0.1081 kg/m3	0.0116 ± 0.00011
353.6 K, Mass density=0.0368 kg/m3	0.01163 ± 0.00011
365.86 K, Mass density=0.2351 kg/m3	0.01203 ± 0.00011
366.29 K, Mass density=0.1973 kg/m3	0.01205 ± 0.00011
366.37 K, Mass density=0.0247 kg/m3	0.01209 ± 0.00011
366.48 K, Mass density=0.1654 kg/m3	0.01207 ± 0.00011
366.77 K, Mass density=0.1081 kg/m3	0.01209 ± 0.00011
366.96 K, Mass density=0.0793 kg/m3	0.01211 ± 0.00011
367.03 K, Mass density=0.0402 kg/m3	0.01212 ± 0.00011
367.1 K, Mass density=0.0668 kg/m3	0.0121 ± 0.00011
367.84 K, Mass density=0.0186 kg/m3	0.01216 ± 0.00011
368.22 K, Mass density=0.0368 kg/m3	0.01216 ± 0.00011
380.42 K, Mass density=0.0247 kg/m3	0.0126 ± 0.00011
380.43 K, Mass density=0.1973 kg/m3	0.01257 ± 0.00011
380.59 K, Mass density=0.0668 kg/m3	0.01259 ± 0.00011
380.6 K, Mass density=0.1654 kg/m3	0.01258 ± 0.00011
380.8 K, Mass density=0.0186 kg/m3	0.01263 ± 0.00011
381.09 K, Mass density=0.0402 kg/m3	0.01263 ± 0.00011
381.09 K, Mass density=0.0793 kg/m3	0.01263 ± 0.00011
381.33 K, Mass density=0.1081 kg/m3	0.01263 ± 0.00011
381.7 K, Mass density=0.2351 kg/m3	0.01262 ± 0.00011
382.14 K, Mass density=0.0368 kg/m3	0.01268 ± 0.00011
393.95 K, Mass density=0.1654 kg/m3	0.01309 ± 0.00012
394.29 K, Mass density=0.0668 kg/m3	0.0131 ± 0.00012
394.39 K, Mass density=0.0186 kg/m3	0.01314 ± 0.00012
394.43 K, Mass density=0.1973 kg/m3	0.0131 ± 0.00012
394.48 K, Mass density=0.2351 kg/m3	0.01311 ± 0.00012
394.72 K, Mass density=0.0247 kg/m3	0.01313 ± 0.00012
395 K, Mass density=0.1081 kg/m3	0.01314 ± 0.00012
395.38 K, Mass density=0.0402 kg/m3	0.01316 ± 0.00012
395.87 K, Mass density=0.0793 kg/m3	0.01319 ± 0.00012
396.61 K, Mass density=0.0368 kg/m3	0.01322 ± 0.00012
408.3 K, Mass density=0.1654 kg/m3	0.01365 ± 0.00012
408.32 K, Mass density=0.0668 kg/m3	0.01364 ± 0.00012
408.34 K, Mass density=0.2351 kg/m3	0.01365 ± 0.00012
408.76 K, Mass density=0.1973 kg/m3	0.01366 ± 0.00012
408.87 K, Mass density=0.0186 kg/m3	0.01369 ± 0.00012
409.37 K, Mass density=0.1081 kg/m3	0.01369 ± 0.00012
409.39 K, Mass density=0.0793 kg/m3	0.0137 ± 0.00012
409.46 K, Mass density=0.0402 kg/m3	0.01369 ± 0.00012
409.76 K, Mass density=0.0247 kg/m3	0.01371 ± 0.00012
411.18 K, Mass density=0.0368 kg/m3	0.01379 ± 0.00012
422.56 K, Mass density=0.2351 kg/m3	0.01421 ± 0.00012
422.69 K, Mass density=0.1654 kg/m3	0.01422 ± 0.00012
422.72 K, Mass density=0.0668 kg/m3	0.0142 ± 0.00012
422.75 K, Mass density=0.0247 kg/m3	0.01422 ± 0.00012
422.94 K, Mass density=0.1973 kg/m3	0.01422 ± 0.00012
423.26 K, Mass density=0.0186 kg/m3	0.01424 ± 0.00012
423.44 K, Mass density=0.0793 kg/m3	0.01425 ± 0.00012
423.62 K, Mass density=0.1081 kg/m3	0.01425 ± 0.00012
423.7 K, Mass density=0.0402 kg/m3	0.01426 ± 0.00012
423.8 K, Mass density=0.0368 kg/m3	0.01428 ± 0.00012
437.27 K, Mass density=0.2351 kg/m3	0.01482 ± 0.00013
437.71 K, Mass density=0.1654 kg/m3	0.01483 ± 0.00013
437.84 K, Mass density=0.1973 kg/m3	0.01484 ± 0.00013
438.04 K, Mass density=0.0668 kg/m3	0.01481 ± 0.00013
438.05 K, Mass density=0.1081 kg/m3	0.01483 ± 0.00013
438.48 K, Mass density=0.0368 kg/m3	0.01487 ± 0.00013
438.71 K, Mass density=0.0793 kg/m3	0.01486 ± 0.00013
438.77 K, Mass density=0.0186 kg/m3	0.01485 ± 0.00013
438.99 K, Mass density=0.0402 kg/m3	0.01486 ± 0.00013
440.41 K, Mass density=0.0247 kg/m3	0.01492 ± 0.00013
